From PubChem BioAssay AID304 (DTP/NCI, 2004)
Where “and” joins values, the source holds several entries; their conditions need not be identical. Equal entries are not always repeated. Toxic doses and inconclusive results are not listed.

System: Lymphosarcoma Mecca ip in C3AKF1 mice, survival T/C%
Assay: NCI In Vivo Anticancer Drug Screen. Data for tumor model Lymphosarcoma Mecca (intraperitoneal) in C3AKF1 (CHKRF1) mice
Details: endpoint: survival time, mean or median, higher = longer survival
Protocol: The antitumor activity of compounds was measured in mice bearing transplantable tumors. Survival or tumor size were measured and the results are expressed as the measurement made in the treated group (T) divided by the measurement made in the vehicle treated control group (C). The tumor model used in this assay is Lymphosarcoma Mecca (intraperitoneal) in C3AKF1 (CHKRF1) mice

[1] = dose: 8.0 mg/kg/injection, schedule: Q01DX010 (ip), vehicle: saline
[2] = dose: 16.0 mg/kg/injection, schedule: Q01DX010 (ip), vehicle: saline
[3] = dose: 12.5 mg/kg/injection, schedule: Q01DX010 (ip), vehicle: saline
[4] = dose: 25.0 mg/kg/injection, schedule: Q01DX010 (ip), vehicle: saline
[5] = dose: 2.5 mg/kg/injection, schedule: Q01DX010 (ip), vehicle: saline
[6] = dose: 5.0 mg/kg/injection, schedule: Q01DX010 (ip), vehicle: saline
[7] = dose: 10.0 mg/kg/injection, schedule: Q01DX010 (ip), vehicle: saline
[8] = dose: 20.0 mg/kg/injection, schedule: Q01DX010 (ip), vehicle: saline
[9] = dose: 3.13 mg/kg/injection, schedule: Q01DX010 (ip), vehicle: saline
[10] = dose: 125.0 micrograms/kg/injection, schedule: Q01DX010 (ip), vehicle: saline
[11] = dose: 250.0 micrograms/kg/injection, schedule: Q01DX010 (ip), vehicle: saline
[12] = dose: 500.0 micrograms/kg/injection, schedule: Q01DX010 (ip), vehicle: saline
[13] = dose: 0.5 mg/kg/injection, schedule: Q01DX010 (ip), vehicle: saline
[14] = dose: 1.0 mg/kg/injection, schedule: Q01DX010 (ip), vehicle: saline
[15] = dose: 4.0 mg/kg/injection, schedule: Q01DX010 (ip), vehicle: saline

SMILES: Nc1nc(SCc2ccccc2)c2[nH]cnc2n1
- T/C [1]: 90 % of control
- T/C [2]: 90 % of control

SMILES: COc1cc(-c2ccc(Nc3ccccc3C(=O)O)c(OC)c2)ccc1Nc1ccccc1C(=O)O
- T/C [3]: 111 % of control
- T/C [4]: 120 % of control and 122 % of control
- T/C (dose: 200.0 mg/kg/injection, schedule: Q01DX010 (ip), vehicle: saline): 105 % of control

SMILES: CCOC(=O)NP(=O)(N1CC1)N1CC1
- T/C [5]: 111 % of control and 116 % of control
- T/C [6]: 116 % of control and 122 % of control
- T/C [7]: 122 % of control

SMILES: COc1cc(-c2ccc(Nc3ccccc3C(=O)O)c(OC)c2)ccc1N
- T/C [7]: 105 % of control and 110 % of control
- T/C [8]: 111 % of control and 115 % of control
- T/C (dose: 40.0 mg/kg/injection, schedule: Q01DX010 (ip), vehicle: saline): 122 % of control
- T/C (dose: 80.0 mg/kg/injection, schedule: Q01DX010 (ip), vehicle: saline): 111 % of control

SMILES: O=C(Nc1ccc(C2=NCCN2)cc1)c1ccc(C(=O)Nc2ccc(C3=NCCN3)cc2)c([N+](=O)[O-])c1
- T/C (dose: 6.0 mg/kg/injection, schedule: Q01DX010 (ip), vehicle: saline): 116 % of control
- T/C [1]: 116 % of control
- T/C (dose: 12.0 mg/kg/injection, schedule: Q01DX010 (ip), vehicle: saline): 116 % of control

SMILES: O=[n+]1c2c(n([O-])c3ccccc31)-c1cccc3cccc-2c13
- T/C [9]: 100 % of control
- T/C [3]: 88 % of control
- T/C [4]: 90 % of control

SMILES: O[C@H](CN1CC1)[C@@H](O)CN1CC1
- T/C (dose: 62.5 micrograms/kg/injection, schedule: Q01DX010 (ip), vehicle: saline): 175 % of control
- T/C [10]: 210 % of control and 235 % of control
- T/C [11]: 235 % of control and 300 % of control
- T/C [12]: 105 % of control

SMILES: C[C@H]1C(=O)O[C@@H]2CCN3CC=C(COC(=O)[C@](C)(O)[C@@]1(C)O)[C@H]23
- T/C [9]: 109 % of control and 115 % of control
- T/C (dose: 6.25 mg/kg/injection, schedule: Q01DX010 (ip), vehicle: saline): 95 % of control and 109 % of control
- T/C [3]: 105 % of control and 118 % of control
- T/C [4]: 109 % of control and 115 % of control

SMILES: Nc1nc(F)nc2c1ncn2C1OC(CO)C(O)C1O (configuration not stated)
- T/C [13]: 100 % of control
- T/C [14]: 90 % of control and 105 % of control
- T/C (dose: 2.0 mg/kg/injection, schedule: Q01DX010 (ip), vehicle: saline): 90 % of control and 100 % of control
- T/C [15]: 100 % of control
- T/C [1]: 100 % of control

SMILES: C[C@]12C=CC(=O)C=C1CC[C@@H]1[C@@H]2[C@@H](O)C[C@@]2(C)[C@H]1CC[C@]2(O)C(=O)CO
- T/C (dose: 12.5 mg/kg/injection, schedule: Q01DX010 (sc), vehicle: steriod suspending solution): 86 % of control
- T/C (dose: 25.0 mg/kg/injection, schedule: Q01DX010 (sc), vehicle: steriod suspending solution): 100 % of control
- T/C (dose: 50.0 mg/kg/injection, schedule: Q01DX010 (sc), vehicle: steriod suspending solution): 160 % of control
- T/C (dose: 100.0 mg/kg/injection, schedule: Q01DX010 (sc), vehicle: steriod suspending solution): 115 % of control

SMILES: COC(=O)[C@@H]1c2cc3c(c(O)c2[C@@H](OC2OC(C)C(OC)C(C)(OC)C2OC)C[C@]1(C)O)C(=O)c1c(O)cc2c(c1C3=O)O[C@H]1O[C@]2(C)[C@H](O)[C@@H](N(C)C)[C@@H]1O (some centres not stated)
- T/C [10]: 95 % of control and 100 % of control
- T/C [11]: 110 % of control
- T/C [12]: 100 % of control and 105 % of control

SMILES: CS(=O)(=O)OCCC(=O)N1CCN(C(=O)CCOS(C)(=O)=O)CC1
- T/C [3]: 120 % of control
- T/C [4]: 105 % of control and 110 % of control
- T/C (dose: 100.0 mg/kg/injection, schedule: Q01DX010 (ip), vehicle: saline): 160 % of control

SMILES: CN1CC[C@]23c4c5ccc(O)c4O[C@H]2C(=O)CC[C@H]3[C@H]1C5
- T/C [15]: 88 % of control and 100 % of control
- T/C [1]: 100 % of control and 111 % of control
- T/C [2]: 105 % of control and 111 % of control
- T/C (dose: 32.0 mg/kg/injection, schedule: Q01DX010 (ip), vehicle: saline): 100 % of control and 116 % of control

SMILES: O=c1[nH]cc(F)c(=O)[nH]1
- T/C [5]: 100 % of control
- T/C [6]: 110 % of control
- T/C [8]: 155 % of control

SMILES: C1CN1c1nc(N2CC2)nc(N2CC2)n1
- T/C (dose: 0.13 mg/kg/injection, schedule: Q01DX010 (ip), vehicle: saline): 180 % of control
- T/C (dose: 0.25 mg/kg/injection, schedule: Q01DX010 (ip), vehicle: saline): 152 % of control
- T/C [13]: 96 % of control
- T/C [14]: 95 % of control
